Data: article PMC3964211, “Pharmacokinetic modeling optimizes inhibition of the ‘undruggable’ EWS-FLI1 transcription factor in Ewing Sarcoma” (Oncotarget, 2013)

System: A4573 cells
Assay: Time point re-plating (colony formation) assay
Assay type: cell-based
Settings: for Colony counts: then replated without YK-4-279
Procedure: We determined the replating efficiency of A4573 cells after 12–84 hours of treatment with 3 ¼M YK-4-279. Cells were treated for the indicated exposure time then replated without YK-4-279 to assay for colony formation (Figure 1A).
A4573 cells were plated at a density of 2×10^5 cells/dish in 60 mm dishes and incubated for 8 hours before treatment start with 3 ¼M racemic YK-4-279. Cells were removed with trypsin at their respective treatment time, cell suspensions were centrifuged, and cells were resuspended in 500 ¼l of media. One hundred microliters of cell suspension was plated in each 10 cm dish (triplicates) with 12 ml of media. Dishes were incubated for 1 week before staining with crystal violet stain. Colonies were counted using Nikon NIS Elements BR Software.

[1] = A4573 cells, 3 ¼M YK-4-279, 84 hours exposure

COc1ccc(C(=O)CC2(O)C(=O)Nc3c(Cl)ccc(Cl)c32)cc1 (stereo not drawn) [YK-4-279]
Decrease in colony growth between the 24 and 36 hour time points (A4573 cells, 3 ¼M YK-4-279): 3 fold
Colony counts (A4573 cells, 3 ¼M YK-4-279, 24 hour exposure): 2229±101 colonies
Colony counts (A4573 cells, 3 ¼M YK-4-279, 72 hours exposure): 53 colonies
Drop in colonies from the 24 hour time point [1]: 98.9%
Colony counts [1]: 25±12 colonies
Growth of surviving colonies replated in continuous presence of compound (colonies from 72 and 84 hours harvested and replated in continuous presence of 3 ¼M YK-4-279): no growth was observed
